From patent publication EP0006845A1, “Pharmaceutical composition comprising a 5-aroyl-1-C1-5 alkyl-pyrrole-2-acetic acid compound and acetaminophen or acetylsalicylic acid” (McNeilab, Inc., priority 1978, dated 1980)

Experiments:
adjuvant arthritic rats [1] = experiment: adjuvant arthritis test, evaluation of paw volume of the non-injected hind paw; type: in vivo, female Wistar, Lewis rats
From the text: (§1) The efficacy of the novel combination of this invention in inhibiting inflammation and osteogenic degeneration is particularly seen in the adjuvant arthritis test. […] The adjuvant arthritis test, a test in which adjuvant arthritis which results both in inflammation and osteogenic changes is induced by Mycobacterium butvricum and in which the effect of the test compounds on each effect can be Determined, is considered to be .most useful for evaluation of compounds which may be suitable for the treatment of rheumatoid arthritis and other arthritic diseases. The test procedure, in which the effect on inflammation is determined by paw volume changes and the effect on osteogenic changes is determined by microscopic observation, is described by Wong et al, in J. Pharmacol.Exp.Ther. 185, 127-138, 1973, and is employed in the present determination of the potentiation of the antiarthritic properties of 5-aroyl-l-loweralkyl-pyrrole-2-acetic acid derivatives by aspirin or acetaminophen.
(§2) Briefly, in this procedure, adjuvant arthritis is induced in female Wistar, Lewis rats (Charles River Breeding Laboratories. Inc., Wiimington, Mass.) weighing 160-190 gm by a single subcutaneous injection of 0.75 mg Mycobacterium butyricum (Difco) into the left hind paw. The non-injected hind paw remains a normal size for the first seven days. Swelling begins to appear in the non-injected paw of the first rats on Day 8. Using the paw volume determination technique (a technique in which rat paws are dippedin mercury to the hairline and the volume of displacement determined by a modified Van Arman mercury displacement method as described in the aforementioned paper of Wong et al), the time progress curve of volume changes in the non-injected (contralateral) paw is followed. […] The mean onset time for 100 rats is found to be 11.6 days with a standard deviation of 1.9 days and the frequency of onset time values distributed normally between Days 8 and 19. Thus, determinations of antiarthritic activity are made in the period Day 11 to Day 28.
(§3) For determination of anti-inflammatory properties two different evaluations are made: (a) the evaluation of paw volume during the Phase II and Phase III periods and, (b) the evaluation of osteogenic (bone) degenration during the Phase IV period.
For evaluation of paw volume, adjuvant arthritic rats with early but significant signs of arthritis in the contralateral paw are selected on Day 11 and randomly assigned to the various groups of 10 animals in each group. All test -animals are dosed-daily (per os) with the test compound, preferably as sodium salt, or in saline for 17 days (Days 11 to 27 inclusive). Control animals are dosed with an equivalent volume of saline. The paw volumes of the non-injected paws are determined initially on Day 11 and again on Days 15, 18, 22, 25, and 28. The paw volumes are then compared with normal paw volumes of adjuvant arthitic rats previously determined from a reference curve relating normal paw volume to body weight. The volume of each individual rat which is greater than the normal volume is utilized in the analysis of the data. Values for drug treated animals are expressed as a percent inhibition of the paw volume change relative to the mean value for saline controls. Data is evaluated statistically and ED50 values with 95 percent confidence limits are calculated. The method for statistical analysis is described in detail in the aforementioned paper of Wong et al. The term "ED50" refers to the dose of drug required to produce 50 percent antagonism of the paw volume changes observed in the saline treated adjuvant arthritis controls. Suppression of paw volume changes reflects anti-inflammatory and antiarthritic activity of a test drug.

adjuvant arthritic rats [2] = experiment: adjuvant arthritis test, evaluation of bone degeneration (osteogenic changes) in the non-injected hind paw; type: in vivo, female Wistar, Lewis rats; conditions: Rattus norvegicus
From the text: as §1, §2, §3
For evaluation of bone degenerations, normal and adjuvant arthritic rats are sacrificed under C02, after the paw volume measurements have been completed on Day 28. The hind legs are removed above the knees and skinned and the soft tissues dissected away with care to avoid injury to bone and articular structures. The leg bones are then immersed in 2 percent potassium hydroxide solution for approximately four to five days until the remaining soft tissues becomes properly macerated and/or transparent, and the bones are fully visible. The leg bones are stained with Alizarin Red (0.01 percent in 2 percent KOH) for eight hours, and then processed through increasing concentrations of glycerol in water (20, 40, 60, 80 and 100 percent) for purposes of clearing the tissues for microscopic observation. The distal end of the tibiae, the tarsals, metatarsals, phalanges, and sesamoids are evaluated under a Stereozoom Microscope (a special type of dissecting microscope, product of Bausch and Lomb).
Osteogenic changes for each bone (in 31 bone categories) in the non-injected hind paw are graded on a scale of from 0 to 10 (increasing numerical value corresponding to increasing severity of bone degeneration). A total bone degeneration score is obtained (maximum score/paw = 310 points) and then expressed as a percent score. The mean percent score (95 percent confidence limits) for saline control groups from 26 experiments (184 animals) is found to be 53.4 (50.9-55.9). Percent score values for drug treated animals are expressed as a percent inhibition relative to the mean for the saline control group. Data is evaluated statistically and ED50 values with 95 percent confidence limits are calculated.

Question: How did the ED50 (adjuvant arthritic rats [1]; Rattus norvegicus, 672 h, Table IX, ED50 of the pyrrole compound without acetaminophen, Day 28, read-out: ED50) turn out when Cn1c(CC(=O)O)cc(Cl)c1C(=O)c1ccc(Cl)cc1 [4-chloro-5-p-chlorobenzoyl-1-nethyl-pyrrole-2-acetic acid] was run?
Answer: The ED50 was 0.054 mg/kg.

Question: And the inhibition at 0.02 mg/kg/day (adjuvant arthritic rats [1]; Rattus norvegicus, 672 h, Table IX, pyrrole compound 0.02 mg/kg/day alone, Day 28, read-out: Percent Inhibition ± S.E. (Day 28))?
Answer: The inhibition at 0.02 mg/kg/day was 18.6 ± 11.7%.

Question: And the inhibition at 0.06 mg/kg/day (adjuvant arthritic rats [1]; Rattus norvegicus, 672 h, Table IX, pyrrole compound 0.06 mg/kg/day alone, Day 28, read-out: Percent Inhibition ± S.E. (Day 28))?
Answer: The inhibition at 0.06 mg/kg/day was 61.3 ± 5.3%.

Question: What about the inhibition at 0.18 mg/kg/day (adjuvant arthritic rats [1]; Rattus norvegicus, 672 h, Table IX, pyrrole compound 0.18 mg/kg/day alone, Day 28, read-out: Percent Inhibition ± S.E. (Day 28)) of the same compound?
Answer: Its inhibition at 0.18 mg/kg/day is 78.9 ± 8.7%.

Question: What does the source list for Cc1ccc(C(=O)c2ccc(CC(=O)O)n2C)cc1 [Tolmetin, 1-methyl-5-p-toluoyl-pyrrole-2-acetic acid]?
Answer: inhibition at 7.5 mg/kg (adjuvant arthritic rats [2]; Tolmetin 7.5 mg/kg/day alone, read-out: Percent Inhibition of Bone Degeneration ± S.E.): 18.6 ± 6.9%; inhibition at 30 mg/kg (adjuvant arthritic rats [2]; Tolmetin 30.0 mg/kg/day alone, read-out: Percent Inhibition of Bone Degeneration ± S.E.): 26.3 ± 3.7%; inhibition at 120 mg/kg (adjuvant arthritic rats [2]; Tolmetin 120.0 mg/kg/day alone, read-out: Percent Inhibition of Bone Degeneration ± S.E.): 51.7 ± 6.4%; inhibition at 5.6 mg/kg (adjuvant arthritic rats [2]; bone degeneration, Tolmetin 5.6 mg/kg/day alone, read-out: Percent Inhibition ± S. E.): 26.6 ± 7%; inhibition at 11.1 mg/kg (adjuvant arthritic rats [2]; bone degeneration, Tolmetin 11.1 mg/kg/day alone, read-out: Percent Inhibition ± S. E.): 28.7 ± 7.7%; inhibition at 16.7 mg/kg (adjuvant arthritic rats [2]; bone degeneration, Tolmetin 16.7 mg/kg/day alone, read-out: Percent Inhibition ± S. E.): 27.5 ± 4.9%; inhibition at 33.3 mg/kg (adjuvant arthritic rats [2]; bone degeneration, Tolmetin 33.3 mg/kg/day alone, read-out: Percent Inhibition ± S. E.): 33.4 ± 3.9%; inhibition at 50 mg/kg (adjuvant arthritic rats [2]; bone degeneration, Tolmetin 50.0 mg/kg/day alone, read-out: Percent Inhibition ± S. E.): 34.9 ± 2.7%; inhibition at 100 mg/kg (adjuvant arthritic rats [2]; bone degeneration, Tolmetin 100 mg/kg/day alone, read-out: Percent Inhibition ± S. E.): 54.2 ± 1.9%; ED50 (adjuvant arthritic rats [2]; Table III, ED50 of tolmetin without acetaminophen, read-out: ED50 values): 110 mg/kg; ED50 (adjuvant arthritic rats [2]; Table V, ED50 of tolmetin without Aspirin, read-out: ED50): 89.7 mg/kg; ED50 (adjuvant arthritic rats [2]; drug alone, suppression of osteogenic changes, data from several experiments pooled, read-out: ED50 and 95 percent C.L.): 110 mg/kg; ED50 (adjuvant arthritic rats [1]; Rattus norvegicus, 672 h, Table IV, ED50 of tolmetin without Aspirin, Day 28, read-out: ED50): 32 mg/kg; inhibition at 5.6 mg/kg (adjuvant arthritic rats [1]; Rattus norvegicus, 672 h, Tolmetin 5.6 mg/kg/day alone, Day 28, read-out: Percent Inhibition ± S.E. (Day 28)): 30.5 ± 5.1%; inhibition at 11.1 mg/kg (adjuvant arthritic rats [1]; Rattus norvegicus, 672 h, Tolmetin 11.1 mg/kg/day alone, Day 28, read-out: Percent Inhibition ± S.E. (Day 28)): 34.5 ± 8%; inhibition at 16.7 mg/kg (adjuvant arthritic rats [1]; Rattus norvegicus, 672 h, Tolmetin 16.7 mg/kg/day alone, Day 28, read-out: Percent Inhibition ± S.E. (Day 28)): 58.4 ± 8.1%; inhibition at 33.3 mg/kg (adjuvant arthritic rats [1]; Rattus norvegicus, 672 h, Tolmetin 33.3 mg/kg/day alone, Day 28, read-out: Percent Inhibition ± S.E. (Day 28)): 50.8 ± 8.4%; inhibition at 50 mg/kg (adjuvant arthritic rats [1]; Rattus norvegicus, 672 h, Tolmetin 50 mg/kg/day alone, Day 28, read-out: Percent Inhibition ± S.E. (Day 28)): 62.6 ± 2.7%; inhibition at 100 mg/kg (adjuvant arthritic rats [1]; Rattus norvegicus, 672 h, Tolmetin 100 mg/kg/day alone, Day 28, read-out: Percent Inhibition ± S.E. (Day 28)): 66.4 ± 3.9%; ED50 (adjuvant arthritic rats [1]; Rattus norvegicus, Table II, tolmetin without acetaminophen, read-out: ED50 values of Tolmetin): 32 mg/kg; inhibition at 7.5 mg/kg (adjuvant arthritic rats [1]; Rattus norvegicus, Tolmetin 7.5 mg/kg/day alone, read-out: Percent Inhibition of Paw Volume ± S.E.): 37.8 ± 8.8%; inhibition at 30 mg/kg (adjuvant arthritic rats [1]; Rattus norvegicus, Tolmetin 30.0 mg/kg/day alone, read-out: Percent Inhibition of Paw Volume ± S.E.): 49.3 ± 9.7%; inhibition at 120 mg/kg (adjuvant arthritic rats [1]; Rattus norvegicus, Tolmetin 120.0 mg/kg/day alone, read-out: Percent Inhibition of Paw Volume ± S.E.): 78.4 ± 3%; ED50 (adjuvant arthritic rats [1]; Rattus norvegicus, po, 360 h, drug given alone per os, Day 15, read-out: ED50 Values and 95 Percent C.L.): 42.1 mg/kg; ED50 (adjuvant arthritic rats [1]; Rattus norvegicus, po, 432 h, drug given alone per os, Day 18, read-out: ED50 Values and 95 Percent C.L.): 40.6 mg/kg; ED50 (adjuvant arthritic rats [1]; Rattus norvegicus, po, 528 h, drug given alone per os, Day 22, read-out: ED50 Values and 95 Percent C.L.): 32.4 mg/kg; ED50 (adjuvant arthritic rats [1]; Rattus norvegicus, po, 600 h, drug given alone per os, Day 25, read-out: ED50 Values and 95 Percent C.L.): 29.5 mg/kg; ED50 (adjuvant arthritic rats [1]; Rattus norvegicus, po, 672 h, drug given alone per os, Day 28, read-out: ED50 Values and 95 Percent C.L.): 26.4 mg/kg; ED50 Values and 95 Percent C.L. (adjuvant arthritic rats [1]; drug given alone per os, Day 28, 40320 min): 26.4 (22.3 - 29.6) mg/kg/day

Question: How did the ED50 (adjuvant arthritic rats [1]; Rattus norvegicus, 672 h, Table VII, ED50 of the pyrrole compound without acetaminophen, Day 28, read-out: ED50) turn out when Cc1cc(CC(=O)O)n(C)c1C(=O)c1ccc(Cl)cc1 [1,4-dimethyl-5-p-chlorobenzoyl-pyrrole-2-acetic acid] was run?
Answer: Its ED50 is 0.4 mg/kg.

Question: What about the inhibition at 0.11 mg/kg/day (adjuvant arthritic rats [1]; Rattus norvegicus, 672 h, Table VII, pyrrole compound 0.11 mg/kg/day alone, Day 28, read-out: Percent Inhibition ± S.E. (Day 28)) of the same compound?
Answer: Its inhibition at 0.11 mg/kg/day is 27.4 ± 10.1%.

Question: What about the inhibition at 0.33 mg/kg/day (adjuvant arthritic rats [1]; Rattus norvegicus, 672 h, Table VII, pyrrole compound 0.33 mg/kg/day alone, Day 28, read-out: Percent Inhibition ± S.E. (Day 28)) of the same compound?
Answer: The inhibition at 0.33 mg/kg/day was 45 ± 6%.

Question: And the inhibition at 1 mg/kg/day (adjuvant arthritic rats [1]; Rattus norvegicus, 672 h, Table VII, pyrrole compound 1.0 mg/kg/day alone, Day 28, read-out: Percent Inhibition ± S.E. (Day 28))?
Answer: The inhibition at 1 mg/kg/day was 68 ± 7.8%.

Question: What about the ED50 (adjuvant arthritic rats [1]; Rattus norvegicus, 672 h, Table VIII, ED50 of the pyrrole compound without Aspirin, Day 28, read-out: ED50) of the same compound?
Answer: The ED50 was 0.728 mg/kg.

Question: And the inhibition at 0.125 mg/kg/day (adjuvant arthritic rats [1]; Rattus norvegicus, 672 h, Table VIII, pyrrole compound 0.125 mg/kg/day alone, Day 28, read-out: Percent Inhibition ± S.E. (Day 28))?
Answer: Its inhibition at 0.125 mg/kg/day is 17.5 ± 7.5%.

Question: What about the inhibition at 0.5 mg/kg/day (adjuvant arthritic rats [1]; Rattus norvegicus, 672 h, Table VIII, pyrrole compound 0.5 mg/kg/day alone, Day 28, read-out: Percent Inhibition ± S.E. (Day 28)) of the same compound?
Answer: The inhibition at 0.5 mg/kg/day was 43.8 ± 11.8%.

Question: What about the inhibition at 2 mg/kg/day (adjuvant arthritic rats [1]; Rattus norvegicus, 672 h, Table VIII, pyrrole compound 2.0 mg/kg/day alone, Day 28, read-out: Percent Inhibition ± S.E. (Day 28)) of the same compound?
Answer: The inhibition at 2 mg/kg/day was 68.2 ± 5.3%.
